For this test, the system named is S2− InsP3R-1. The test can be described thus: CCh concentration-response of Ca2+ release in Dt-40 3ko cells expressing m3R and S2− InsP3R-1 constructs. The format is cell-based, rat. The conditions noted are these: for maximum peak Δ response to CCh: Fura-2 340/380 ratio; for fold change from WT (CCh EC50): S2 − InsP3R-1 constructs, Table 2; for EC50: fit of normalized initial peak, read-out: EC50 for CCh-induced Ca^2+ release. The source says:
The rat S2^+ InsP3R-1 in the expression plasmid pIRES-GFP was digested with the restriction endonuclease SalI. The overhang created by digestion was blunted by using T4 polymerase. An EcoRI linker was then ligated onto the blunted ends of the construct. The entire receptor DNA was excised from the plasmid using EcoRI and ligated into the plasmid MXT-1. The region containing the S2^− splice variant and potential PKA phosphorylation sites was excised from its backbone in pCDNA 3.1+ by RsrII and KasI and ligated into the InsP3R construct in MXT-1. The potential PKA phosphorylation sites Ser-1589 and Ser-1755 were mutated, individually in both splice variants and together in the S2^− splice variant, to alanines or glutamates by using sequential PCR mutagenesis. The outside primers used for the mutagenesis reaction flanked the restriction sites RsrII and KasI. Following mutation, the resulting fragments were cut with RsrII and KasI and inserted into the InsP3R-1 backbone at the corresponding sites. The mutations were confirmed by Big Dye fluorescent sequencing. Mutated receptor DNAs were excised from MXT-1 by using EcoRI and ligated into the mammalian expression vector pGW (provided by Dr. David Yue, Johns Hopkins University). Orientation was confirmed by using restriction enzyme digestion. Mutants were named based on the splice variant, either S2+ or S2− followed by the amino acid present at position 1589 and 1755. Thus, a mutation in S2^+ InsP3R-1 S1755E is designated, “S2+SE,” and in InsP3R-1 […] S1755A is designated “S2^−SA”. Similarly, an S2− InsP3R-1 with mutations in both S1589E and S1755E is designated “S2−EE”. The numbering of residues is based on the full-length rat InsP3R-1.
Dt-40 cells lacking all three InSP3 receptor subtypes were transfected by using electroporation at 350 V and 950 microfarads (4-mm gap cuvette). 2×10^7 cells were co-transfected with 25 μg of the InsP3R-1 cDNA, 25 μof the muscarinic type 3 (m3R) receptor DNA, and 4 μg of the red fluorescent protein plasmid pHcRed1-N1 (Clontech). Cells were incubated with DNA in 500 μl of Opti-MEM media (Invitrogen) on ice for 10 min. The cell/DNA mixture was electroporated, incubated on ice for 30 min, increased to 5 ml with Opti-MEM, and placed in a 5% CO2 incubator at 39° C. for 5 h. The cells were then centrifuged and resuspended in 12 ml of complete RPMI media (Invitrogen). Transfection efficiency was typically ˜20%. Experiments were performed within 32 h of transfection.
Transfected Dt-40 3ko cells were washed once in a HEPES-buffered physiological saline solution (HEPES-PSS) containing (in mM) 5.5 glucose, 137 NaCl, 0.56 MgCl2, 4.7 KCl, 1 Na2HPO4, 10 HEPES (pH 7.4), 1.2 CaCl2, and 1% w/v bovine serum albumin. Cells were then resuspended in bovine serum albumin HEPES-PSS with 1 μM Fura-2 (AM), placed on a 15-mm glass coverslip in a low volume perfusion chamber, and allowed to adhere for 30 min at room temperature. Cells were perfused continuously for 10 min with HEPES-PSS before experimentation to allow complete Fura-2 de-esterification. A field of cells for each experiment was chosen that contained a wide range of transfection efficiency based upon the intensity of red fluorescence emitted when excited at 560 nm. Individual cells that had emission gray levels between 1500 and 2500 were subsequently chosen to standardize expression levels. [Ca^2+]i imaging was performed essentially as described previously by using an inverted epifluorescence Nikon microscope with a 40× oil immersion objective lens (numerical aperture, 1.3) (100). Cells were excited alternately with light at 340 and 380±10 nm bandpass filters (Chroma, Rockingham, Vt.) using a monochrometer (TILL Photonics, Pleasanton, Calif.). Fluorescence images were captured and digitized with a digital camera driven by TILL Photonics software. Images were captured every 2 s with an exposure of 2 ms and 4 by 4 binning. 340/380 ratio images were calculated online and stored immediately to a hard disk. […]

Where [1] appears, read: listed as S1589E/S1755E mutant InsP3R-1.

Read-outs that look alike come from different tables or passages of the source.

“G1690A: InsP3R-1 S2− variant with glycine to alanine substitution at position 1690 (nucleotide binding site mutant)”: the “maximal response in full CCh concentration-response curve” value is “comparable to that seen in the wild-type receptor”.

“S2−EE: phosphomimetic S1589E/S1755E mutant of the short splice variant”: the “sensitivity of CCh-induced Ca^2+ release relative to other constructs” value is “greatest”, the “maximum peak Δ response to CCh” value is on record as 1.13+0.1 ratio units, the “fold change from WT (CCh EC50)” value was 7.6 fold and the EC50 was determined as 4.3 nM. For the same substance, under “listed as S2− mutant”, the “fold more sensitive than nonphosphorylatable S1589A/S1755A S2− InsP3R-1” value is reported as about 50 fold and the “fold more sensitive than wild type S2− InsP3R-1 (CCh-induced Ca^2+ release)” value worked out at 7.5 fold. For the same substance, under setting [1], the “fold more sensitive than nonphosphorylatable S1589A/S1755A S2− InsP3R-1” value is given as “approximately 35 fold”, the “fold more sensitive than wild type S2− InsP3R-1 (CCh-induced Ca^2+ release)” value is on record as “approximately 7.5 fold” and the “sensitivity of CCh-induced Ca^2+ release relative to other constructs” value is listed as “markedly potentiated Ca^2+ release”.

Turning to “S2−ES: phosphomimetic short splice variant S1589E”, the “fold more sensitive than wild type S2− InsP3R-1 (CCh-induced Ca^2+ release)” value is on record as about 3 fold, the “sensitivity of CCh-induced Ca^2+ release relative to other constructs” value is on record as “intermediate sensitivity”, the “maximum peak Δ response to CCh” value was found to be 0.54±0.1 ratio units and the “fold change from WT (CCh EC50)” value was 2.6 fold. For the same substance, the EC50 is 12.4 ± 0.5 nM.

For the substance “S2−SE: phosphomimetic short splice variant of S1755E”, the “fold more sensitive than wild type S2− InsP3R-1 (CCh-induced Ca^2+ release)” value was about 3 fold, the “sensitivity of CCh-induced Ca^2+ release relative to other constructs” value is on record as “intermediate sensitivity”, the “maximum peak Δ response to CCh” value came out at 0.78±0.1 ratio units and the “fold change from WT (CCh EC50)” value was 2.4 fold. Moreover, the concentration giving a half-maximal response (EC50) was 13.5 ± 1 nM.

As for “S2−WT: wild-type rat type-1 InsP3 receptor, peripheral short S2− splice variant (SEQ ID NO: 17)”, the “maximum peak Δ response to CCh” value was found to be 0.9±0.1 ratio units, the “fold change from WT (CCh EC50)” value is listed as 1 fold and the EC50 came to 32.6 ± 7.5 nM.

The EC50 is the concentration needed to bring the measured effect to its halfway point.

The values are drawn from US20080039410A1, “Inositol 1,4,5-Trisphosphate Receptor Mutants and Uses Thereof” (priority 2004, published 2008).
